Measured values from US4032659A (priority 1975, dated 1977).
Read-outs that look alike come from different tables or passages of the source.

What was measured:
Herpes virus [1] = type: in vivo, mouse
Herpes virus [2] = assay: Herpes virus in eggs (chick embryo survival); type: in vivo, chicken eggs; conditions: for Deaths on day 1 / Deaths on day 2 / Deaths on day 3 / Total Deaths 4th Day / Deaths on day 4: 12 eggs
Influenza PR 8 virus = assay: Chemoprophylaxis of Influenza PR 8 virus infection in mice; type: in vivo, mouse
[3] = test system: Influenza B Massachusetts virus; assay: Chemoprophylaxis of Influenza B Massachusetts virus infection in mice; type: in vivo, mouse; conditions: oral
Method: The activity of four compounds on Influenza B Mass. was tested in mice.
A portion of a commercially available sample of amantadine was recrystallized from isopropanol. The activity of the material against Influenza B Mass. was tested for the sample as obtained, the recrystallized portion, and the mother liquor obtained from recrystallizing the portion.

Vaccinia virus = type: in vivo; conditions: scarified rabbit skin
virus infections = assay: Antiviral screening program, several viruses; conditions: mouse, in vivo
[4] = test system: Influenza Ann Arbor virus; assay: Chemoprophylaxis of Influenza Ann Arbor (A1) virus infection in mice; type: in vivo, mouse; conditions: for No. animals surviving after 5 days / Survivors: oral
[5] = test system: Influenza B Massachusetts virus; conditions: larger doses, different dose schedules; cited from earlier work
[6] = test system: Influenza B Maryland virus; assay: Chemoprophylaxis of Influenza B Maryland virus infection in mice; type: in vivo, mouse; conditions: for No. animals surviving when 18/20 of controls are dead / Survivors: oral
pox virus = assay: Pox virus infections of mice; conditions: mouse, in vivo
[7] = subcutaneous, total dose .0005 μg

In the case of `CCC(C)=NNC(N)=S` [2-Butanone, thiosemicarbazone, 2-butanone, thiosemicarbazone], the “No. animals surviving when 17/20 controls are dead” value (Herpes virus [1]; oral, total dose .000005 μg) was 0, the Survivors (Herpes virus [1]; oral, total dose .000005 μg) was 0 and the “No. animals surviving when 17/20 controls are dead” value (Herpes virus [1]; oral, total dose .00005 μg) was 4. For the same molecule, the “No. animals surviving when 17/20 controls are dead” value (Herpes virus [1]; oral, total dose .0005 μg) was 5, the Survivors (Herpes virus [1]; oral, total dose .0005 μg) was 4 and the “No. animals surviving when 17/20 controls are dead” value (Herpes virus [1]; oral, total dose .05 μg) was 0. For the same molecule, the Survivors (Herpes virus [1]; oral, total dose .05 μg) was 0, the “No. Hatched, total” value (Herpes virus [2]; all doses) was 5 and the “No. Living Longer Than Controls, total” value (Herpes virus [2]; all doses) was 12. For the same molecule, the “Deaths on day 1” value (Herpes virus [2]; dose 2 μg) was 1, the “Deaths on day 2” value (Herpes virus [2]; dose 2 μg) was 5 and the “Deaths on day 3” value (Herpes virus [2]; dose 2 μg) was 3. The “Total Deaths 4th Day” value (Herpes virus [2]; dose 2 μg) was 9, the “Deaths on day 2” value (Herpes virus [2]; dose 20 μg) was 5 and the “Deaths on day 3” value (Herpes virus [2]; dose 20 μg) was 1. The “Deaths on day 4” value (Herpes virus [2]; dose 20 μg) was 2, the “Total Deaths 4th Day” value (Herpes virus [2]; dose 20 μg) was 8 and the “Deaths on day 1” value (Herpes virus [2]; dose .00005 μg) was 2. The “Deaths on day 2” value (Herpes virus [2]; dose .00005 μg) was 4, the “Deaths on day 3” value (Herpes virus [2]; dose .00005 μg) was 5 and the “Total Deaths 4th Day” value (Herpes virus [2]; dose .00005 μg) was 11. For the same molecule, the “Deaths on day 1” value (Herpes virus [2]; dose .0005 μg) was 1, the “Deaths on day 2” value (Herpes virus [2]; dose .0005 μg) was 5 and the “Deaths on day 3” value (Herpes virus [2]; dose .0005 μg) was 3. For the same molecule, the “Deaths on day 4” value (Herpes virus [2]; dose .0005 μg) was 1, the “Total Deaths 4th Day” value (Herpes virus [2]; dose .0005 μg) was 10 and the “Deaths on day 1” value (Herpes virus [2]; dose .005 μg) was 2. For the same molecule, the “Deaths on day 2” value (Herpes virus [2]; dose .005 μg) was 4, the “Deaths on day 3” value (Herpes virus [2]; dose .005 μg) was 2 and the “Deaths on day 4” value (Herpes virus [2]; dose .005 μg) was 3. The “Total Deaths 4th Day” value (Herpes virus [2]; dose .005 μg) was 11, the “Deaths on day 1” value (Herpes virus [2]; dose .05 μg) was 2 and the “Deaths on day 2” value (Herpes virus [2]; dose .05 μg) was 6. For the same molecule, the “Deaths on day 3” value (Herpes virus [2]; dose .05 μg) was 3, the “Total Deaths 4th Day” value (Herpes virus [2]; dose .05 μg) was 11 and the “Deaths on day 1” value (Herpes virus [2]; dose .5 μg) was 1. The “Deaths on day 2” value (Herpes virus [2]; dose .5 μg) was 3, the “Deaths on day 3” value (Herpes virus [2]; dose .5 μg) was 6 and the “Deaths on day 4” value (Herpes virus [2]; dose .5 μg) was 2. The “Total Deaths 4th Day” value (Herpes virus [2]; dose .5 μg) was 12, the Survivors (Influenza PR 8 virus; drinking water 24 h post-infection only, first printed value (concentration column unclear)) was 0 and the Survivors (Influenza PR 8 virus; drinking water 24 h pre- and 24 h post-infection, 0.5 mg/ml) was 1. The “No. animals surviving after 6 days” value (Influenza PR 8 virus; oral, total dose .000005 μg) was 6, the “No. animals surviving after 7 days” value (Influenza PR 8 virus; oral, total dose .000005 μg) was 4 and the “No. animals surviving after 6 days” value (Influenza PR 8 virus; oral, total dose .00005 μg) was 5. For the same molecule, the “No. animals surviving after 7 days” value (Influenza PR 8 virus; oral, total dose .00005 μg) was 8, the “No. animals surviving when 19/20 of controls are dead” value (Influenza PR 8 virus; oral, total dose .00005 μg) was 4 and the Survivors (Influenza PR 8 virus; oral, total dose .00005 μg) was 4. For the same molecule, the “No. animals surviving when 19/20 of controls are dead” value (Influenza PR 8 virus; oral, total dose .0005 μg) was 1, the Survivors (Influenza PR 8 virus; oral, total dose .0005 μg) was 1 and the “No. animals surviving when 19/20 of controls are dead” value (Influenza PR 8 virus; oral, total dose .005 μg) was 0. For the same molecule, the Survivors (Influenza PR 8 virus; subcutaneous, total dose .000005 μg) was 0, the Survivors (Influenza PR 8 virus; subcutaneous, total dose .00005 μg) was 0 and the “No. animals surviving after 6 days” value (Influenza PR 8 virus; [7]) was 1. For the same molecule, the Survivors (Influenza PR 8 virus; [7]) was 1, the Survivors (Influenza PR 8 virus; subcutaneous, total dose .005 μg) was 0 and the “No. animals surviving after 5 days” value ([3]; total dose .000005 μg) was 6. For the same molecule, the “No. animals surviving when 100% controls are dead” value ([3]; total dose .000005 μg) was 3, the Survivors ([3]; total dose .000005 μg) was 2 and the “No. animals surviving after 5 days” value ([3]; total dose .00005 μg) was 8. For the same molecule, the “No. animals surviving when 100% controls are dead” value ([3]; total dose .00005 μg) was 3, the Survivors ([3]; total dose .00005 μg) was 2 and the “No. animals surviving after 5 days” value ([3]; total dose .0005 μg) was 7. The “No. animals surviving when 100% controls are dead” value ([3]; total dose .0005 μg) was 1, the Survivors ([3]; total dose .0005 μg) was 0 and the “No. animals surviving after 5 days” value ([3]; total dose .005 μg) was 4. The “No. animals surviving when 100% controls are dead” value ([3]; total dose .005 μg) was 0, the Survivors ([3]; total dose .005 μg) was 0 and the “No. animals surviving after 5 days” value ([3]; total dose .05 μg) was 4. The “No. animals surviving when 100% controls are dead” value ([3]; total dose .05 μg) was 2, the Survivors ([3]; total dose .05 μg) was 0 and the “No. animals surviving after 5 days” value ([3]; total dose .5 μg) was 5. The “No. animals surviving when 100% controls are dead” value ([3]; total dose .5 μg) was 4, the Survivors ([3]; total dose .5 μg) was 1 and the “effect on pox formation” value (Vaccinia virus) was “variable”. For the same molecule, the “activity (in words)” value (virus infections) was “one of the most active compounds that has been studied to date”.
With `NC12CC3CC(CC(C3)C1)C2` [Amantadine, amantadine, reference compound] the “tests with survivors (of 18 tests)” value ([4]; 18 tests) was 5, the “instances of a statistically significant number of survivors” value (Influenza PR 8 virus; 41 tests) was “one single instance” and the “instances of increased geometric mean survival time” value (Influenza PR 8 virus; 41 tests) was 11. The “number of survivors in the single significant instance” value (Influenza PR 8 virus; 41 tests) was 3, the “activity (in words)” value (virus infections) was “inactive against all of the other viruses in the test system” and the “chemoprophylaxis (in words)” value [5] was “ineffective against Influenza B Massachusetts”.
In the case of `CN1C(=O)/C(=N\NC(N)=S)c2ccccc21` [Methisazone, 1-methylindole-2,3-dione,3-thiosemicarbazone, reference compound], the “No. animals surviving after 6 days” value (Herpes virus [1]; mouse, in vivo, po) was 1, the “No. animals surviving after 6 days” value (Herpes virus [1]; oral, total dose .00005 μg) was 0 and the “No. animals surviving after 6 days” value (Herpes virus [1]; oral, total dose .0005 μg) was 0. The “No. animals surviving after 6 days” value (Herpes virus [1]; oral, total dose .005 μg) was 0, the Survivors (Herpes virus [1]; oral, total dose .05 μg) was 0 and the “No. animals surviving after 5 days” value ([4]; total dose 5 μg) was 4. The Survivors ([4]; total dose 5 μg) was 0, the “No. animals surviving after 5 days” value ([4]; total dose 50 μg) was 3 and the Survivors ([4]; total dose 50 μg) was 0. The “No. animals surviving after 5 days” value ([4]; total dose .00005 μg) was 6, the Survivors ([4]; total dose .00005 μg) was 0 and the “No. animals surviving after 5 days” value ([4]; total dose .0005 μg) was 5. For the same molecule, the Survivors ([4]; total dose .0005 μg) was 0, the “No. animals surviving after 5 days” value ([4]; total dose .005 μg) was 5 and the Survivors ([4]; total dose .005 μg) was 0. The “No. animals surviving after 5 days” value ([4]; total dose .05 μg) was 4, the Survivors ([4]; total dose .05 μg) was 0 and the “No. animals surviving after 5 days” value ([4]; total dose .5 μg) was 6. For the same molecule, the Survivors ([4]; total dose .5 μg) was 0, the activity ([6]; mouse, in vivo) was “active against Influenza B Maryland virus” and the “No. animals surviving when 18/20 of controls are dead” value ([6]; total dose 6 ng) was 4. For the same molecule, the Survivors ([6]; total dose 6 ng) was 2, the “No. animals surviving when 18/20 of controls are dead” value ([6]; total dose 60 ng) was 4 and the Survivors ([6]; total dose 60 ng) was 2. The “No. animals surviving when 18/20 of controls are dead” value ([6]; total dose 600 ng) was 2, the Survivors ([6]; total dose 600 ng) was 2 and the “No. animals surviving when 18/20 of controls are dead” value ([6]; total dose 6 μg) was 4. For the same molecule, the Survivors ([6]; total dose 6 μg) was 1, the activity (pox virus) was “active against pox virus infections of mice” and the “activity (in words)” value (virus infections) was “found to have activity”.
